The pKa is the pH at which an ionisable group is half protonated.

These results are taken from patent US10208029B2, “Photoacid compositions having extended lifetime of proton dissociation state” (University of Central Florida Research Foundation, Inc., priority 2013, dated 2019).

Data set [1] can be described thus: pH of aqueous solution of photoacid 1 in the dark, under 419 nm irradiation and after light off. It counts as physicochemical. An excerpt: Photoacid 1 shown in FIG. 2B as MEH comprises an example disclosed PAH comprising a protonated photochromic merocyanine (MEH) with a propyl sulfonate group on the nitrogen of the indoline moiety. It was discovered that photoacid 1 can reversibly change the proton concentration of its solution by over 100 times.
In an aqueous solution, the MEH form of 1 is predominantly at room temperature in the dark, which was proven by UV-Vis and NMR spectroscopy.
Proton dissociation of the cis-MEH produces cis-ME, which undergoes a nucleophilic ring closing reaction to yield the product shown as SP in FIG. 2B and a proton. The product formed by the ring closing process has a stabilized proton dissociation state.
When the light was turned off, the pH value increased quickly to ˜4.5 in ˜1 min, gradually returning to its original level in ˜5 min. This cycle can be repeated many times. Therefore, the proton concentration in a solution having photoacid 1 can be simply controlled by switching a visible light source on and off.

The nature of data set [2]: Reversibility of photo-induced proton release. The conditions noted are these: PBS buffer with a pH of 7.4. The class given is physicochemical. The source says: Referring now to FIGS. 6A-6QQ, the structures of 43 photoacids designed based on FIG. 3A including the photoacids 1 and 40 are shown. All of them have been synthesized. […]. Analogs of photoacid 1 have been extensively studied. Electron-donating groups (-Me and —OMe) on the phenolic moiety increase the stability of the photoacid towards hydrolysis and faster the reverse reaction rate. Photoacids with extended conjugated structures can absorb light and thus function at longer wavelengths than photoacid 1. For example, photoacid 20 has a maximum absorption at 538 nm in 95% ethanol solution, which is about 100 nm longer than that of photoacid 1. Photoacids 10, 17 and 39 have acrylate moieties. They can be used to make photoacid polymers via chain-growth polymerization or thiol-ene reaction. […]. […] In photoacid 34, a benzothiazolium is used as the EA part since it improves the reversibility of the photoreaction.

In the case of `CC1(C)C(/C=C/c2ccccc2O)=[N+](CCCS(=O)(=O)[O-])c2ccccc21` [photoacid 1], in data set [1], the “reversible change of proton concentration of its solution” value was “over 100 times”. Further, the “pH value of aqueous solution” value in data set [1] (5.88×10^−4 M aqueous solution, 25° C., dark) is 5.5. Besides, the pH under irradiation in data set [1] (aqueous solution irradiated with 419 nm light) was determined as 3.3. Also, in data set [1] (aqueous solution, 419 nm light), the “pH drop upon irradiation” value is on record as “more than 2 units”. For the same molecule, the “time to return to original pH level after light off” value in data set [1] (aqueous solution, dark) is ~5 min. For the same molecule, the pKa in data set [1] (calculated from pH of 5.88×10^−4 M aqueous solution at 25° C., dark state) was 7.8. The “pH value after the light was turned off” value in data set [1] (~1 min after light off) is on record as ~4.5.
With `O=S(=O)([O-])CCC[n+]1c(/C=C/c2cccc3cn[nH]c23)sc2ccccc21` [photoacid 34], the reversible proton release entry in data set [2] was “can reversibly release a proton”.
